Measurements reported in PubChem BioAssay (NCI).
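Following 48 hours of exposure in 96-well plates, responses at five concentrations were used to interpolate endpoints linearly. At the TGI there is no net growth.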

Experiments:
Experiment in all cases: growth of human tumour cells (NCI), 48 h
[1] = test system: UO-31 renal
[2] = test system: CCRF-CEM leukemia
[3] = test system: 786-0 renal
[4] = test system: SNB-75 CNS
[5] = test system: MDA-MB-231 breast
[6] = test system: M14 melanoma
[7] = test system: NCI/ADR-RES ovarian
[8] = test system: MDA-MB-435
[9] = test system: SF-295 CNS
[10] = test system: HCC-2998 colon

| Structure (SMILES) | TGI [1] [µM] | TGI [2] [µM] | TGI [3] [µM] | TGI [4] [µM] | TGI [5] [µM] | TGI [6] [µM] | TGI [7] [µM] | TGI [8] [µM] | TGI [9] [µM] | TGI [10] [µM] |
| --- | --- | --- | --- | --- | --- | --- | --- | --- | --- | --- |
| Cn1c(-c2ccc[se]2)ccc1-c1ccc(C=O)[se]1 | > 100 | 14.1 | > 100 | > 65.1 | > 100 | > 100 | 9.13 | > 100 | 58.8 | > 53.5 |
| O=c1[nH]c(=O)c2ncn(-c3ccc([N+](=O)[O-])cn3)c2[nH]1 | > 100 | > 100 | > 100 | > 100 | > 100 | > 100 | > 100 | > 100 | > 100 | > 100 |
| O=C1/C(=C/c2ccc(O)cc2)CCCC1CN1CCCCC1 (stereo not given) | 5.88 | > 100 | 2.38 | 22.5 | 4.43 | 8.07 | 29.6 | 21.3 | 29.9 | 17.2 |
| CCOC(=O)/C=C(/C(=O)OCC)n1cc(C)c(=O)n(Cc2cnnn2COCCOC(C)=O)c1=O | 30.4 | 5.8 | 22.5 | > 67.2 | 36.1 | 31.8 | 61.3 | 38.2 | > 100 | 39.1 |
| Cc1cc2c(c(C(=O)NCC(=O)N[C@@H](C)C(=O)OCc3ccccc3)c1)Oc1c(cc(C)cc1C(=O)NCC(=O)N[C@@H](C)C(=O)OCc1ccccc1)S2 | > 100 | > 100 | > 100 | 46.1 | > 100 | > 100 | > 100 | > 100 | > 100 | > 100 |
| COc1cccc2c1NC(=O)Cc1c-2[nH]c2ccccc12 | > 100 | > 100 | > 100 | > 100 | > 100 | > 100 | > 100 | > 100 | > 100 | > 100 |
| COc1cc(CC(C)=O)cc(OC)c1 | > 100 | > 100 | > 100 | > 100 | > 100 | > 100 | > 100 | > 100 | > 100 | > 100 |
| CN(C)CN1CSC(=S)N(CN(C)C)C1 | > 100 | > 100 | > 100 | > 100 | > 100 | > 100 | > 100 | > 100 | > 100 | > 100 |
| Clc1ccc(CCNC2(c3cc4ccccc4s3)CCCCC2)cc1Cl | 36.7 | 31 | 36.8 | 49.3 | 43.2 | > 100 | 80.8 | > 100 | 84.3 | 22.1 |
| C/C=C1/CN2CCC34c5ccccc5N(C)C23C2CC1C4(C(=O)OC)C(OC(C)=O)O2 (stereo not given) | > 100 | > 100 | > 100 | > 100 | > 100 | > 100 | > 100 | > 100 | > 100 | > 100 |
| COc1ccccc1NC(=S)N=Nc1c(O)[nH]c2ccccc12 | > 100 | > 100 | > 100 | > 100 | > 100 | > 100 | > 100 | > 100 | > 100 | > 100 |
| O=C(c1ccccc1)N1CCN(C(=S)NC2CCCCC2)C1=S | 30.5 | 45.1 | 52.2 | 31.6 | 21.1 | 31.3 | 43.6 | 38 | 54.4 | 33.1 |
| COC(=O)c1c(O)ccc2c1c1cc3ccccc3cc1n2Cc1cc(OC)cc(OC)c1 | > 100 | > 100 | > 100 | 8.94 | > 100 | > 100 | > 29.2 | 1.86 | 7.18 | > 100 |
| O=C1c2ccccc2C(=O)N1n1c(Cc2ccc(Cl)cc2)n[nH]c1=O | > 100 | > 100 | > 100 | > 100 | > 100 | > 100 | > 100 | > 100 | > 100 | > 100 |
| N[C@H]1c2c(Br)sc(Br)c2C(=O)[C@H]1O | 47.2 | 6.63 | 34.5 | 79.7 | 36.1 | 48.4 | > 58.9 | 36.7 | 51.1 | 27.5 |
